Assay results published in patent publication US4387100A, “Substituted phenoxy-aminopropanol derivatives” (Hoffmann-La Roche Inc., priority 1980, dated 1983).
Like-named read-outs stand apart in the source and are kept apart here.

How the values were obtained:
β1-adrenoceptors = target: T1, β1-adrenoceptors (Rattus norvegicus, UniProt P18090); experiment: 50% reduction in isoprenaline-induced tachycardia (β1-blocking activity) in rats, i.v.; type: in vivo; conditions: iv, read-out: ED50 (HR)
T1 construct: this activity is measured in rats by determining the dosage; from tissue; host or cells: living rat, i.v. dosing; read-out heart rate (isoprenaline-induced tachycardia)
T1 sequence (P18090 whole entry): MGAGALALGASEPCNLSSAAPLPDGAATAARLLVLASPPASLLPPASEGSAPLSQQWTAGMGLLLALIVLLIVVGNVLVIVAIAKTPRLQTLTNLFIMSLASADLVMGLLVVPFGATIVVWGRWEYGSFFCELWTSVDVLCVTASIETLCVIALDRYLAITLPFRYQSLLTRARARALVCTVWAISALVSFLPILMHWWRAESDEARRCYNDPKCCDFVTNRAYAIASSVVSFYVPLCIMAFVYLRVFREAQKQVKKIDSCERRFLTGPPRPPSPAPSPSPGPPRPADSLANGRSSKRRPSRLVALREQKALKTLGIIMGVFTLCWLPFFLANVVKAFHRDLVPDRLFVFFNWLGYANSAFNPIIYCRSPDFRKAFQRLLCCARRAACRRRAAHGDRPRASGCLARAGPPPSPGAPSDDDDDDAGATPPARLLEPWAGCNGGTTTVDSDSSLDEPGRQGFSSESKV

β2-adrenoceptors = target: T2, β2-adrenoceptors (Rattus norvegicus, UniProt P10608); experiment: 50% reduction in isoprenaline-induced depressor responses (β2-blocking activity) in rats, i.v.; type: in vivo; conditions: iv, dosage for 50% reduction in isoprenaline-induced depressor responses
T2 construct: this activity is measured in rats by determining the dosage; from tissue; host or cells: living rat, i.v. dosing; read-out blood pressure (isoprenaline-induced depressor response)
T2 sequence (P10608 whole entry): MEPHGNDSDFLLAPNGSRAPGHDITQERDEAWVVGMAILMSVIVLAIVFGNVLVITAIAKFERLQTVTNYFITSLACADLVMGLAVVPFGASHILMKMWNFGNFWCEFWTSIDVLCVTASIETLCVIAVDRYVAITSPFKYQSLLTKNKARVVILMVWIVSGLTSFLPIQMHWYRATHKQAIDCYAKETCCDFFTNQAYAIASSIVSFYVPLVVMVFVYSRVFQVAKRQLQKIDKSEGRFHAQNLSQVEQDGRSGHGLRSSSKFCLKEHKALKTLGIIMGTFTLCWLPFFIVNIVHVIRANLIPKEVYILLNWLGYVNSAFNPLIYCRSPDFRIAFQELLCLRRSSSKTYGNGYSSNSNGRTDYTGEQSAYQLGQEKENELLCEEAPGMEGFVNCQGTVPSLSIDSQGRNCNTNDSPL

[1] = rats, i.v., dosage for 50% reduction in isoprenaline-induced tachycardia

Compound | ED50 (β1-adrenoceptors; [1]) | ED50 (β2-adrenoceptors) | ED50 (β1-adrenoceptors)
CC(C)NCC(O)COc1ccc(OCCn2cccn2)cc1 (stereo not drawn) [A] | 0.05 mg/kg | 6.5 mg/kg | –
CC(C)NCC(O)COc1ccc(CC(N)=O)cc1 (stereo not drawn) [Atenolol, atenolol, reference compound] | – | – | 0.091 mg/kg

Now from value to compound, other results behind:

ED50 (β1-adrenoceptors; [1]) | ED50 (β2-adrenoceptors) | Compound | ED50 (β1-adrenoceptors)
0.011 mg/kg | > 2 mg/kg | CC(C)NCC(O)COc1ccc(OCn2nccn2)cc1 (stereo not drawn) [C] | –
0.004 mg/kg | 2.43 mg/kg | CC(C)NCC(O)COc1ccc(OCn2cc(Cl)cn2)cc1 (stereo not drawn) [B] | –
0.014 mg/kg | > 2 mg/kg | CC(C)NCC(O)COc1ccc(OCCn2nccn2)cc1 (stereo not drawn) [D] | –
